{"source": "patent US4771041A", "about": "“Method for combating virus infection” (priority 1976, dated 1988)", "key": {"[1]": {"test_system": "reverse transcriptase from RMuLV", "experiment": "Cell-free reverse transcriptase inhibition, RMuLV", "format": "biochemical, Rauscher murine leukemia virus", "details": "template/primer (rA)n.(dT)10", "description": "(§1) Reverse transcriptase from various retroviruses have been tested in cell-free assays for inhibition by phosphonoformic acid and phosphonoacetic acid. The assay conditions have been described by Collaborative Research, Inc, 1365 Main Street, Waltham, Mass., USA \"Assay kit for mammalian viral reverse transcriptase\". BLV and VV were prepared in this laboratory and all other viruses and viral enzyme were obtained from Dr. K Nilsson, Department of Pathology, University of Uppsala and from Boehringer Mannheim, Germany. Phosphonoformic acid (PFA) and phosphonoacetic acid (PAA) were added at pH 7.2 to the reaction mixtures at the start of the reaction.\n(§2) Rauscher murine leukemia virus; RMuLV, visna virus; VV, avian myeloblastosis virus; AMV, bovine leukemia virus; BLV, baboon endogenous virus; BaEV, simian sarcoma virus; SSV."}, "[2]": {"target": "T1, reverse transcriptase from VV (Maedi visna virus, UniProt P03370)", "T1 construct": "Reverse transcriptase from various retroviruses have been tested in cell-free assays; made in house", "T1 sequence (P03370 541-1111)": "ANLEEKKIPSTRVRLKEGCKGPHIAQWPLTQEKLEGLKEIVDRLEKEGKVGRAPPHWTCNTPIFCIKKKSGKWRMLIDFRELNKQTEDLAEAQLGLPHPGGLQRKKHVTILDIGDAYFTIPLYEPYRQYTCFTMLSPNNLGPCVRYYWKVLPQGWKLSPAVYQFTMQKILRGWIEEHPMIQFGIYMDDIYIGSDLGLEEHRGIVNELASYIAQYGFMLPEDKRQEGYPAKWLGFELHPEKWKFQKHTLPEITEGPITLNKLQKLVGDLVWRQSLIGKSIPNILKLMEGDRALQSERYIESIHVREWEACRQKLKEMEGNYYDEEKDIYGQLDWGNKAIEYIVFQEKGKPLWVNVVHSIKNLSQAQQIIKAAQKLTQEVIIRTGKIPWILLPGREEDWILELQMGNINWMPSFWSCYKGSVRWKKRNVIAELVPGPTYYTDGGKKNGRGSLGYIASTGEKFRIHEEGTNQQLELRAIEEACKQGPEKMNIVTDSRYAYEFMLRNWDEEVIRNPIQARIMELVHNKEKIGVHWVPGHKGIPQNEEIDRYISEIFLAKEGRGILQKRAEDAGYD", "experiment": "Cell-free reverse transcriptase inhibition, VV", "format": "biochemical", "details": "template/primer (rA)n.(dT)10, read-out: Percent inhibition", "description": "as §1, §2"}, "[3]": {"target": "T2, reverse transcriptase from BLV (Bovine leukemia virus, UniProt P03361)", "T2 construct": "Reverse transcriptase from various retroviruses have been tested in cell-free assays; made in house", "T2 sequence (P03361 546-1120)": "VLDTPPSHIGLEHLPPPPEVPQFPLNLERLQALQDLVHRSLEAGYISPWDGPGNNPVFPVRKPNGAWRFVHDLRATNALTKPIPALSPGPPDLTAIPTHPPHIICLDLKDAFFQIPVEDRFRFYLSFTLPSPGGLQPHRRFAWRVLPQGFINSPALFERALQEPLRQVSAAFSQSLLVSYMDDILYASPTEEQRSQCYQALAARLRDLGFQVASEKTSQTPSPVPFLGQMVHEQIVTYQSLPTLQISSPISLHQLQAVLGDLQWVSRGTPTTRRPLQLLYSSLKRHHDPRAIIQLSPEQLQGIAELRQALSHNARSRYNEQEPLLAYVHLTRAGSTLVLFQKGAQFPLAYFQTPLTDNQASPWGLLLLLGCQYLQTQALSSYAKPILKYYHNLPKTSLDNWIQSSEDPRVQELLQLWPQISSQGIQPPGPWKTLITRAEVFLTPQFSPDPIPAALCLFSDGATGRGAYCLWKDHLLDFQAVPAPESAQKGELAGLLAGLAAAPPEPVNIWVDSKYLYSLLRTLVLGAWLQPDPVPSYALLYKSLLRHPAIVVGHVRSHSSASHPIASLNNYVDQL", "experiment": "Cell-free reverse transcriptase inhibition, BLV", "format": "biochemical", "details": "template/primer (rA)n.(dT)10, read-out: Percent inhibition", "description": "as §1, §2"}, "[4]": {"target": "T3, reverse transcriptase from BaEV (Baboon endogenous virus, UniProt P10272)", "T3 construct": "Reverse transcriptase from various retroviruses have been tested in cell-free assays", "T3 sequence (P10272 659-1335)": "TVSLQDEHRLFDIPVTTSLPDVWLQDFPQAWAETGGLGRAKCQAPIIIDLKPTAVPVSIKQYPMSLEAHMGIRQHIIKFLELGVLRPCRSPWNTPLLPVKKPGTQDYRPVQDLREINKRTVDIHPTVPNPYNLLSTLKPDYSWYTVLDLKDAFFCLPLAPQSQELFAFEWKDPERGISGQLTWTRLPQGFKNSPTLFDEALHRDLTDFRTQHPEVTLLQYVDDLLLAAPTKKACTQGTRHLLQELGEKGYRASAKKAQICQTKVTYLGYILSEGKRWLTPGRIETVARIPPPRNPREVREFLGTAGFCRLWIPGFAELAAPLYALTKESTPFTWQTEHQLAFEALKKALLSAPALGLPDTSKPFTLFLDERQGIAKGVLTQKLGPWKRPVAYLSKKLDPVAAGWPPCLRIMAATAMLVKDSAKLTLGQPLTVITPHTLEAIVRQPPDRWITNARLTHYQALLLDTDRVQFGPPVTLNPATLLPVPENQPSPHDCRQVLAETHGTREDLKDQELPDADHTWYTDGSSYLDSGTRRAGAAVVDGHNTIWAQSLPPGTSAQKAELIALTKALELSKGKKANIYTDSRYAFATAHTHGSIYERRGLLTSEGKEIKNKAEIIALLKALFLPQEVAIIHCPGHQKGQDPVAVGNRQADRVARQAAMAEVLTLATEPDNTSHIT", "experiment": "Cell-free reverse transcriptase inhibition, BaEV", "format": "biochemical", "details": "template/primer (rA)n.(dT)10, read-out: Percent inhibition", "description": "as §1, §2"}, "[5]": {"target": "T4, reverse transcriptase from SSV (Woolly monkey sarcoma virus, UniProt P03359)", "T4 construct": "Reverse transcriptase from various retroviruses have been tested in cell-free assays", "T4 sequence (P03359 642-1310)": "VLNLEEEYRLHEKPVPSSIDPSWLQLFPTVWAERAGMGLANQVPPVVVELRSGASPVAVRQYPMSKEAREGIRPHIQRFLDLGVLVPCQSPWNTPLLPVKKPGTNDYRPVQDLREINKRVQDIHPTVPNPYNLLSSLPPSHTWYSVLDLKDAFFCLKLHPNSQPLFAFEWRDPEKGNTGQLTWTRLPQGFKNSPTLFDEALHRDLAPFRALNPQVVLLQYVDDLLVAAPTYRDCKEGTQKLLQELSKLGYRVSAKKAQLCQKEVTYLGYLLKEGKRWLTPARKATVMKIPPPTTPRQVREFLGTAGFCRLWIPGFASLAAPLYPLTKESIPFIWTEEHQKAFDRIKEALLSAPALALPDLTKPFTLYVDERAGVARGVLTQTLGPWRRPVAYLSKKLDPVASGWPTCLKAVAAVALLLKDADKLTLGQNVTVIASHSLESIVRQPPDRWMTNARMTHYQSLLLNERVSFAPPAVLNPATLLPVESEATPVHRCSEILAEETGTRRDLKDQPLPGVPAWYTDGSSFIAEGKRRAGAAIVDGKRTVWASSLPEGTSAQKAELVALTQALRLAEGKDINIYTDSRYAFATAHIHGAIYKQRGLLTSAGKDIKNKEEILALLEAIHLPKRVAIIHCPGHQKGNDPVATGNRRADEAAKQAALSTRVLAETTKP", "experiment": "Cell-free reverse transcriptase inhibition, SSV", "format": "biochemical, simian sarcoma virus", "details": "template/primer (rA)n.(dT)10, read-out: Percent inhibition", "description": "as §1, §2"}, "[6]": {"test_system": "reverse transcriptase from AMV", "experiment": "Cell-free reverse transcriptase inhibition, AMV", "format": "biochemical, avian myeloblastosis virus", "description": "as §1, §2"}, "visna virus": {"test_system": "visna virus", "experiment": "Visna virus growth in sheep choroid plexus (SCP) cells: virus titre and morphological changes", "format": "cell-based", "details": "500 μM", "description": "Visna virus is a retrovirus that can multiply in sheep choroid (SCP) cells. The infection can be followed by titrating medium from infected cells to determine the formation of virus particles and by observing morphological changes as syncytial formation and cell degeneration.\nPlates (5 cm) with primary SCP cells in medium 199 with 10% sheep serum were grown to confluence and then infected with 1×10^6 TCID50 (tissue culture infectious doses) of visna virus. One set of plates were left untreated, one set received different concentrations of phosphonoformic acid (PFA) at pH 7.2. Another set received phosphonoacetic acid (PAA) at pH 7.2. Uninfected plates were used as controls with and without PFA and PAA. The virus titre was determined 5 days after infection by the end-point titration method. The plates were checked daily in a light microscope to observe morphological changes."}, "[7]": {"details": "guinea pig, in vivo", "description": "Phosphonoformic acid and phosphonoacetic acid were used as their trisodium and disodium salts, respectively. The test substances were used in 1% solutions.\nGuinea-pigs of the Dunkin-Hartley strain of both sexes and weighing 200-300 g were used. The back of the animal was shaved and depilated with Opilca® on the day before starting the application of the solutions. The back was divided into six squares in the middle of which 30 μl of the test solutions was applied. In a given group of animals the different solutions were applied in a randomized order alternating between sites. However, the same site was used for repeated application of a given solution.\nThe irritation was scored on scales of 0 to 3, each grade corresponding to the following specific criteria of irritation:\n1=slight erythema or edema or no hair growth\n2=moderate erythema or edema or skin discoloration\n3=marked erythema or edema or necrosis including crust formation.\nThe scoring was carried out blindly using coded solutions.\nThe scores of all the applications for a given solution and time were added and the average score was calculated.\nThe solvent used was a mixture of glycerol 10.0% (w/v), Tween 80 0.1% and aq sterile ad 100. All solutions were adjusted to pH 6.5 with hydrochloric acid or aqueous sodium hydroxide as required. Thirty μl of 1.0% solutions of phosphonoformic acid and phosphonoacetic acid respectively was applied twice daily during three days to each of six guinea pigs."}, "[8]": {"parameters": "species or system Cynomolgus monkeys", "details": "cynomolgus monkey, in vivo", "description": "Phosphonoformic acid, also denoted PFA and phosphonoacetic acid, also denoted PAA were used in the form of their trisodium and disodium salt, respectively. The following equimolar compositions of the two test compounds were used: […]\nTwo adult male Cynomolgus monkeys were treated once daily for 7 days with PFA or PAA in Arlatone cream. Treatment was done both by topical application of 0.2 ml cream on an area of 3×7 cm on the upper part of the arms and by application of 0.2 ml of cream on the penis and the adjacent skin. During application of cream, the animals were lightly anaesthetized with Ketalar®, given intramuscularly. All applications were 0.2 ml each on day 6/3, 7/3, 8/3, 9/3, 10/3, 11/3 and 12/3 1978."}}}
{"smiles": "O=C(O)CP(=O)(O)O", "note": "[phosphonoacetic acid, reference compound]", "values": [{"measurement": "Percent inhibition", "setting": "[1]; 10 μM", "value": 0, "unit": "%"}, {"measurement": "Percent inhibition", "setting": "[1]; 100 μM", "value": 10, "unit": "%"}, {"measurement": "Percent inhibition", "setting": "[1]; 500 μM", "value": 35, "unit": "%"}, {"measurement": "inhibition at 100 µM", "setting": "[2]; 100 μM", "value": 25, "unit": "%"}, {"measurement": "inhibition at 500 µM", "setting": "[2]; 500 μM", "value": 3, "unit": "%"}, {"measurement": "inhibition at 100 µM", "setting": "[3]; 100 μM", "value": 0, "unit": "%"}, {"measurement": "inhibition at 500 µM", "setting": "[3]; 500 μM", "value": 10, "unit": "%"}, {"measurement": "inhibition at 10 µM", "setting": "[4]; 10 μM", "value": 5, "unit": "%"}, {"measurement": "inhibition at 100 µM", "setting": "[4]; 100 μM", "value": 58, "unit": "%"}, {"measurement": "inhibition at 500 µM", "setting": "[4]; 500 μM", "value": 71, "unit": "%"}, {"measurement": "inhibition at 10 µM", "setting": "[5]; 10 μM", "value": 0, "unit": "%"}, {"measurement": "inhibition at 100 µM", "setting": "[5]; 100 μM", "value": 44, "unit": "%"}, {"measurement": "inhibition at 500 µM", "setting": "[5]; 500 μM", "value": 58, "unit": "%"}, {"measurement": "Percent inhibition", "setting": "[6]; 10 μM, endogenous template", "value": 0, "unit": "%"}, {"measurement": "Percent inhibition", "setting": "[6]; 10 μM, purified enzyme, (rA)n.(dT)10", "value": 0, "unit": "%"}, {"measurement": "Percent inhibition", "setting": "[6]; 10 μM, template/primer (rA)n.(dT)10", "value": 0, "unit": "%"}, {"measurement": "Percent inhibition", "setting": "[6]; 100 μM, endogenous template", "value": -2, "unit": "%"}, {"measurement": "Percent inhibition", "setting": "[6]; 100 μM, purified enzyme, (rA)n.(dT)10", "value": 0, "unit": "%"}, {"measurement": "Percent inhibition", "setting": "[6]; 100 μM, template/primer (rA)n.(dT)10", "value": -34, "unit": "%"}, {"measurement": "Percent inhibition", "setting": "[6]; 500 μM, endogenous template", "value": -3, "unit": "%"}, {"measurement": "Percent inhibition", "setting": "[6]; 500 μM, purified enzyme, (rA)n.(dT)10", "value": 19, "unit": "%"}, {"measurement": "Percent inhibition", "setting": "[6]; 500 μM, template/primer (rA)n.(dT)10", "value": -86, "unit": "%"}, {"measurement": "effect on virus multiplication", "setting": "visna virus; SCP cells", "value": "does not prevent virus multiplication"}, {"measurement": "Morphological changes Day 3", "setting": "visna virus; Visna virus infected cells", "value": "+ (10% cell degeneration)"}, {"measurement": "Morphological changes Day 5", "setting": "visna virus; Visna virus infected cells", "value": "++ (25% cell degeneration)"}, {"measurement": "Morphological changes Day 7", "setting": "visna virus; Visna virus infected cells", "value": "++++ (100% cell degeneration)"}, {"measurement": "skin condition after two weeks", "setting": "[7]", "value": "the skin heals after about two weeks but remains hairless"}, {"measurement": "skin irritation score", "setting": "[7]; pH 6.5", "value": "2-3 score"}, {"measurement": "Result (skin irritation), area of application penis", "setting": "[8]", "value": "Glans penis and adjacent skin areas irritated 9/3-12/3 Adjacent skin areas also showed symptoms 23/3"}]}
